ChEMBL document CHEMBL1157085, “Cytoglobosins A-G, cytochalasans from a marine-derived endophytic fungus, Chaetomium globosum QEN-14” (J Nat Prod, 2010)
Active and inactive are the calls of the source. The calls are words filed in the database; no cut-off is given here.

Legend:
Format in all cases: functional, cell-based
P388 = experiment: Cytotoxicity against mouse P388 cells
A549 = experiment: Cytotoxicity against human A549 cells
KB = experiment: Cytotoxicity against human KB cells

For C/C1=C\[C@@H](C)C/C=C/[C@H]2C=C(CO)[C@@H](C)[C@H]3[C@H](Cc4c[nH]c5ccccc45)NC(=O)[C@]32C(=O)CCC(=O)C1=O [CYTOGLOBOSIN E], the Activity (P388) was “inactive”, the IC50 (A549) was greater than 10 µM and the Activity (KB) was “inactive”.
For CC1=C(C)[C@H]2[C@H](Cc3c[nH]c4ccccc34)NC(=O)[C@]23C(=O)/C=C/[C@H](O)[C@H](O)/C(C)=C/[C@@H](C)C/C=C/[C@H]3[C@@H]1O [CYTOGLOBOSIN C], the Activity (P388) was “inactive”, the IC50 (A549) was 2.26 µM and the Activity (KB) was “inactive”.
In the case of C=C1[C@@H](C)[C@H]2[C@H](Cc3c[nH]c4ccccc34)NC(=O)[C@]23C(=O)/C=C/[C@H](O)[C@H](O)/C(C)=C/[C@@H](C)C/C=C/[C@H]3[C@@H]1O [CYTOGLOBOSIN B], the Activity (P388) is reported as “inactive”, the IC50 (A549) is reported as greater than 10 µM and the Activity (KB) is reported as “inactive”.
For C=C1[C@@H](C)[C@H]2[C@H](Cc3c[nH]c4ccccc34)NC(=O)[C@]23C(=O)C[C@H]2C(=O)C(O)=C(C)[C@@H]2[C@@H](C)C/C=C/[C@H]3[C@@H]1O [CYTOGLOBOSIN A], the Activity (P388) was “inactive”, the IC50 (A549) was greater than 10 µM and the Activity (KB) was “inactive”.
CC1=C[C@@H]2/C=C/C[C@H](C)/C=C(\C)[C@@H](O)[C@@H](O)/C=C/C(=O)[C@]23C(=O)N[C@@H](Cc2c[nH]c4ccccc24)[C@@H]3[C@@H]1C [CYTOGLOBOSIN D] was tested, and the Activity (P388) was “inactive”, the IC50 (A549) was 2.55 µM and the Activity (KB) was “inactive”.
